Results taken from US5068247A, “2-aminopentanoic acid compounds and their use as immunosuppressants” (priority 1989, dated 1991).
≈ marks a conversion by molar mass, not a printed value. Read-outs that look alike come from different tables or passages of the source. Values belong to the molecule of their own block, whether it stands above or below them.

Experiments:
[1] = test system: mouse allogenic MLR (BALB/c mouse spleen cells stimulated with C57BL/6 mouse spleen cells); experiment: mouse allogenic mixed lymphocyte reaction (MLR), 3H-thymidine uptake; format: cell-based
Protocol: The immunosuppressive activity of the compounds was assayed on the basis of mouse allogenic mixed lymphocyte reaction (hereinafter sometimes abbreviated as MLR). Mouse allogenic MRL was carried out using a mixed culture of BALB/c mouse (H-2^d) spleen cells as the responder cells and mitomycin C-treated C57BL/6 ([…]) mouse spleen cells as the stimulator cells in equal amounts.
The responder cells were prepared as follows:
The spleen was resected from 5- to 6-week-old BALB/c mice, and single cell suspension of spleen cells was prepared by using the RPMI1640 culture medium (containing 60 μg/ml of kanamycin sulfate, 2 mM of L-glutamine, 10 mM of N-2-hydroxyethylpiperazine-N'-2-ethanesulphonate (HEPES) and 0.1% sodium hydrogencarbonate) to which heat-inactivated fetal calf serum (hereinafter sometimes abbreviated as FCS) had been added to 5%. After hemolytic treatment, the cell suspension was adjusted to a concentration of 10^7 cells/ml with the RPMI1640 culture medium supplemented with 10^-4 M 2-mercapto-ethanol and 20% FCS, and was used as the responder cell suspension.
The stimulator cells were prepared as follows: The spleen was resected from 5- to 6-week-old male C57BL/6 mice, and a single cell suspension of spleen cells was prepared by using the RPMI1640 culture medium. After hemolytic treatment, the cells were treated with 40 μg/ml of mitomycin C at 37° C. for 60 minutes. After washing three times, the cell suspension was adjusted to a concentration of 10^7 cells/ml with the RPMI1640 culture medium supplemented with 10^-4 M 2-mercapto-ethanol and 20% FCS, and was used as the stimulator cell suspension.
The blastogenesis of lymphocytes was assayed using ^3 H-thymidine uptake as an index. That is, after termination of culture, 18.5 KBq/well of ^3 H-thymidine was added thereto and the suspension was cultured for 4 hours. Cells were harvested by a cell-harvester, and the radioactivity incorporated into the cells was determined by a liquid scintillation counter, which was used as an index of blastogenesis of lymphocytes in the mouse allogenic MLR. The suppression of the mouse allogenic MLR was evaluated by calculating the percent suppression by the following formula.
The test substance dissolved in methanol was diluted with the RPMI1640 culture medium and put to use.

[2] = test system: U937; experiment: cytotoxicity to cultured tumor cell line U937; format: cell-based, human
Protocol: (§1) Cytotoxicity to various human tumor cell lines was examined as follows:
(§2) Cells of human cell lines, K562, MOLT4, U937 and HL60 were respectively suspended to the concentration of 4×10^5 cells/ml in the RPMI1640 culture medium supplemented with 20% FCS. Fifty μl of each suspension was added to each well of a 96-well microtest plate to which 50 μl of the test solution had been added. After culturing the suspension at 37° C. in an atmosphere of 5% carbon dioxide for 72 hours, the absorbancy at 570 nm was measured in the same way as with the colorimetry using MTT in Experiment Example 1, and the percent suppression was calculated by the following formula, which was used as an index of cytotoxicity.

[3] = cytotoxicity to cultured tumor cell line U937; format: cell-based, human; details: human, u937 cells, read-out: Suppression
Protocol: as §1, §2

[4] = cytotoxicity to cultured tumor cell line K562; details: human, k562 cells, Suppression
Protocol: as §1, §2

[5] = test system: K562; experiment: cytotoxicity to cultured tumor cell line K562
Protocol: as §1, §2

[6] = test system: IL-3 production in mouse allogenic MLC; experiment: suppression of IL-3 production in mouse allogenic MLC; format: cell-based
Protocol: Mouse allogenic MLC was carried out as follows:
After termination of culture, the supernatant was collected and used as the supernatant of mouse allogenic MLC.

[7] = cytotoxicity to cultured tumor cell line HL60; details: human, hl60 cells, Suppression
Protocol: as §1, §2

[8] = test system: HL60; experiment: cytotoxicity to cultured tumor cell line HL60
Protocol: as §1, §2

[9] = cytotoxicity to cultured tumor cell line MOLT4; format: cell-based, human; details: human, molt4 cells, read-out: Suppression
Protocol: as §1, §2

[10] = test system: MOLT4; experiment: cytotoxicity to cultured tumor cell line MOLT4; format: cell-based, human
[11] = test system: allo-specific cytotoxic antibody in serum of EL4-immunized BALB/c mice; experiment: suppression of allo-specific cytotoxic antibody production induced by allogenic cell immunization of mouse; format: in vivo
Protocol: Male 5- to 7-week-old BALB/c mice were immunized with leukemia cell EL4 derived from C57BL/6 mice (10^7 cells/mouse, intraperitoneal administration) in the same way as in Experiment Example 9, and the […] Nine to ten days after immunization, a serum was collected from the mice. Fifty μl of the two-fold serial dilution of the serum, 50 μl of a guinea pig complement and EL4 cell suspension labelled with ^51 Cr as the target cell (5×10^4 cells/ml, 100 μl) were together added to a 96-well microtest plate. After incubation at 37° C. for 1 hour, the amount of ^51 Cr released in the supernatant was measured, and the complement-dependent cytotoxicity was calculated by the following formula. [formula]
The value of allo-specific cytotoxic antibody determined as above was expressed by the titer calculated on the basis of the concentration at which the releasing amount of ^51 Cr was 50% of that of ^51 Cr-labelled target cells treated with 0.1 N HCl.

[12] = Mus musculus, Lymphocyte, 0.0001 μg/ml; Table 1A; read-out: Suppression
[13] = Mus musculus, Lymphocyte, 0.001 μg/ml; Table 1A; read-out: Suppression
[14] = Mus musculus, Lymphocyte, 0.01 μg/ml; Table 1A; read-out: Suppression
[15] = Mus musculus, Lymphocyte, 0.1 μg/ml; Table 1A; read-out: Suppression
[16] = Mus musculus, Lymphocyte, 1 μg/ml; Table 1A; read-out: Suppression
[17] = Mus musculus, Lymphocyte; read-out: 50%-inhibition concentration (IC50) in mouse allogenic MLR
[18] = Mus musculus, Lymphocyte, read-out: Suppression
[19] = 0.01 mg/kg/day ip × 5, Table 10A
[20] = 0.03 mg/kg/day ip × 5, Table 10A
[21] = 0.1 mg/kg/day ip × 5, Table 10A
[22] = 0.3 mg/kg/day ip × 5, Table 10A
[23] = 0.3 mg/kg/day po × 5, Table 10B

Structure (SMILES): CCCCCCC(O)C=CCCCCC=CCC(O)C(O)C(N)(CO)C(=O)O (centres unmarked) [Example 1]
- 3H-thymidine uptake ([1]; 0.0001 μg/ml; Table 1A): 17985 cpm
- 3H-thymidine uptake ([1]; 0.001 μg/ml; Table 1A): 13566 cpm
- 3H-thymidine uptake ([1]; 0.01 μg/ml; Table 1A): 11016 cpm
- 3H-thymidine uptake ([1]; 0.1 μg/ml; Table 1A): 1020 cpm
- 3H-thymidine uptake ([1]; 1 μg/ml; Table 1A): 919 cpm
- inhibition at 0.0001 µg/mL [1, 12]: 2.7%
- inhibition at 0.001 µg/mL [1, 13]: 29%
- inhibition at 0.01 µg/mL [1, 14]: 44.1%
- inhibition at 0.1 µg/mL [1, 15]: 100%
- inhibition at 1 µg/mL [1, 16]: 100%
- IC50 [1, 17]: 0.013 µg/mL (≈ 0.0324 µM)

Structure (SMILES): CCCCCCCCCCCCCCCC[C@@H](O)[C@H](O)[C@@](N)(CO)C(=O)O [Example 2]
- 3H-thymidine uptake ([1]; 0.001 μg/ml; Table 1A): 17981 cpm
- 3H-thymidine uptake ([1]; 0.01 μg/ml; Table 1A): 12011 cpm
- 3H-thymidine uptake ([1]; 0.1 μg/ml; Table 1A): 2329 cpm
- 3H-thymidine uptake ([1]; 1 μg/ml; Table 1A): 1869 cpm
- IC50 ([1]; Mus musculus, Lymphocyte, read-out: 50%-inhibition concentration (IC50) in mouse allogenic MLR): 0.016 µg/mL (≈ 0.0411 µM)
- inhibition at 0.001 µg/mL [1, 18]: 2.7%
- inhibition at 0.01 µg/mL [1, 18]: 38.2%
- inhibition at 0.1 µg/mL [1, 18]: 95.8%
- inhibition at 1 µg/mL [1, 18]: 98.6%
- Absorbancy ([2]; 0.1 μg/ml): 0.669 ± 0.030
- Absorbancy ([2]; 1 μg/ml): 0.681 ± 0.009
- Absorbancy ([2]; 10 μg/ml): 0.673 ± 0.111
- cytotoxicity at 72 h ([3]; 1 μg/ml): 0.1%
- cytotoxicity at 72 h ([3]; 10 μg/ml): 1.3%
- cytotoxicity at 72 h ([3]; 0.1 μg/ml): 1.9%
- cytotoxicity at 72 h ([4]; 0.1 μg/ml): 0.7%
- cytotoxicity at 72 h ([4]; 1 μg/ml): 2.9%
- cytotoxicity at 72 h ([4]; 10 μg/ml): 4.4%
- Absorbancy ([5]; 0.1 μg/ml): 1.128 ± 0.025
- Absorbancy ([5]; 1 μg/ml): 1.103 ± 0.045
- Absorbancy ([5]; 10 μg/ml): 1.086 ± 0.045
- IL-3 activity ([6]; 0.0001 μg/ml): 42.8 U/ml
- IL-3 activity ([6]; 0.001 μg/ml): 45.3 U/ml
- IL-3 activity ([6]; 0.01 μg/ml): 42.2 U/ml
- IL-3 activity ([6]; 0.1 μg/ml): 23.6 U/ml
- IL-3 activity ([6]; 1 μg/ml): 11.0 U/ml
- inhibition at 0.0001 µg/mL ([6]; Mus musculus, 48 h, 0.0001 μg/ml): 16.3%
- inhibition at 0.001 µg/mL ([6]; Mus musculus, 48 h, 0.001 μg/ml): 9.9%
- inhibition at 0.01 µg/mL ([6]; Mus musculus, 48 h, 0.01 μg/ml): 17.9%
- inhibition at 0.1 µg/mL ([6]; Mus musculus, 48 h, 0.1 μg/ml): 65.3%
- inhibition at 1 µg/mL ([6]; Mus musculus, 48 h, 1 μg/ml): 97.4%
- cytotoxicity at 72 h ([7]; 0.1 μg/ml): 7%
- cytotoxicity at 72 h ([7]; 1 μg/ml): 1.6%
- cytotoxicity at 72 h ([7]; 10 μg/ml): 3.3%
- Absorbancy ([8]; 0.1 μg/ml): 1.385 ± 0.066
- Absorbancy ([8]; 1 μg/ml): 1.466 ± 0.126
- Absorbancy ([8]; 10 μg/ml): 1.441 ± 0.018
- cytotoxicity at 72 h ([9]; 0.1 μg/ml): 0.9%
- cytotoxicity at 72 h ([9]; 1 μg/ml): 11%
- cytotoxicity at 72 h ([9]; 10 μg/ml): 9.4%
- Absorbancy ([10]; 0.1 μg/ml): 1.144 ± 0.040
- Absorbancy ([10]; 1 μg/ml): 1.027 ± 0.009
- Absorbancy ([10]; 10 μg/ml): 1.045 ± 0.041
- Allogenic cell-specific antibody in serum, suppression [11, 19]: 0%
- Allogenic cell-specific antibody in serum, titer [11, 19]: 119 ± 47
- Allogenic cell-specific antibody in serum, suppression [11, 20]: 0%
- Allogenic cell-specific antibody in serum, titer [11, 20]: 87 ± 55
- Allogenic cell-specific antibody in serum, suppression [11, 21]: 0%
- Allogenic cell-specific antibody in serum, titer [11, 21]: 89 ± 32
- Allogenic cell-specific antibody in serum, suppression [11, 22]: 39.9%
- Allogenic cell-specific antibody in serum, titer [11, 22]: 50 ± 48
- Allogenic cell-specific antibody in serum, suppression [11, 23]: 39.3%
- Allogenic cell-specific antibody in serum, titer [11, 23]: 130 ± 45
- Allogenic cell-specific antibody in serum, suppression ([11]; 1 mg/kg/day ip × 5, Table 10A): > 80%
- Allogenic cell-specific antibody in serum, titer ([11]; 1 mg/kg/day ip × 5, Table 10A): < 16
- Allogenic cell-specific antibody in serum, suppression ([11]; 1 mg/kg/day po × 5, Table 10B): 37.9%
- Allogenic cell-specific antibody in serum, titer ([11]; 1 mg/kg/day po × 5, Table 10B): 133 ± 50
- Allogenic cell-specific antibody in serum, suppression ([11]; 3 mg/kg/day ip × 5, Table 10A): > 80%
- Allogenic cell-specific antibody in serum, titer ([11]; 3 mg/kg/day ip × 5, Table 10A): < 16
- Allogenic cell-specific antibody in serum, suppression ([11]; 3 mg/kg/day po × 5, Table 10B): 58.9%
- Allogenic cell-specific antibody in serum, titer ([11]; 3 mg/kg/day po × 5, Table 10B): 88 ± 47
- Allogenic cell-specific antibody in serum, suppression ([11]; 10 mg/kg/day po × 5, Table 10B): 68.7%
- Allogenic cell-specific antibody in serum, titer ([11]; 10 mg/kg/day po × 5, Table 10B): 67 ± 16
- allo-specific cytotoxic antibody production in serum (in words) ([11]; intraperitoneal or oral, Tables 10A to 10D): strongly suppresses allo-specific cytotoxic antibody production in serum

- IC50 [1, 17]: 0.25 µg/mL (≈ 0.523 µM)
Structure (SMILES): CCCCCCC1(CCCCCC/C=C/C[C@@H](O)[C@H](O)[C@@](N)(CO)C(=O)O)SCCS1 [Example 3]
- 3H-thymidine uptake ([1]; 0.0001 μg/ml; Table 1A): 17247 cpm
- 3H-thymidine uptake ([1]; 0.001 μg/ml; Table 1A): 16263 cpm
- 3H-thymidine uptake ([1]; 0.01 μg/ml; Table 1A): 13978 cpm
- 3H-thymidine uptake ([1]; 0.1 μg/ml; Table 1A): 14747 cpm
- 3H-thymidine uptake ([1]; 1 μg/ml; Table 1A): 631 cpm
- inhibition at 0.0001 µg/mL [1, 12]: 7.1%
- inhibition at 0.001 µg/mL [1, 13]: 12.9%
- inhibition at 0.01 µg/mL [1, 14]: 26.5%
- inhibition at 0.1 µg/mL [1, 15]: 21.9%
- inhibition at 1 µg/mL [1, 16]: 96.2%
